Reference: US20120308548A1 (NOVA SOUTHEASTERN UNIVERSITY, priority 2010, published 2012)
Values joined by “and” are separate entries in the source; they are usually repeats but may differ in a detail not shown here. Equal values may be shown once. “Also recorded” adds a separate entry of the source. Read-outs that look alike come from different tables or passages of the source.

Key:
MEGL/2ABD = biological target: T1, MEGL/2ABD (Porphyromonas gingivalis, UniProt Q7MX71); type: biochemical; settings: isotope assay, FIG. 13E
T1 construct: hexa-His tag with TEV protease site (N, cleaved yes); made in house; host or cells: E. coli BL21 (DE3)
T1 sequence (Q7MX71 7-399): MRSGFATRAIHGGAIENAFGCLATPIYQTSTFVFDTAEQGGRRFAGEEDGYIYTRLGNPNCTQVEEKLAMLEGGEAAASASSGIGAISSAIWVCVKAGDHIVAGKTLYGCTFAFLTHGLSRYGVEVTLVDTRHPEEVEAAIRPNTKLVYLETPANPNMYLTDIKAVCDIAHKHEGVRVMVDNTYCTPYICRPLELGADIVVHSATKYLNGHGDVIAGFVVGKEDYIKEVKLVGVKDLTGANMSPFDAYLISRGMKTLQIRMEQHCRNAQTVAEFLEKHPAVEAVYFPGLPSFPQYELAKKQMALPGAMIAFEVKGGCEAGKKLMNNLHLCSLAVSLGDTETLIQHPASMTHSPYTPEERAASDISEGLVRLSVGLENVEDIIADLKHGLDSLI
Protocol: Typically the overall reaction of α-ketobutyrate formation was performed in a total volume of 24 μl. The reaction contained 4 μl of reaction buffer [150 mM Tris-HCl (pH 8.0)], 4 μl of 1 mM pyridoxal phosphate (PLP), 3 μl of H2O, 6 μl of storage buffer, and 4 μl of diluted protein (0.4 μg), gently mixed and incubated at 37° C. for 5 minutes. The reaction was started by adding 1.93×10^5 cpm of 1-^14C-L-methionine (8814 cpm/nmol) and the contents were incubated at 37° C. for 15 minutes. The reaction was stopped by boiling for a minute, cooled on ice for 2 minutes and centrifuged at 3575 g for 7 minutes. A 2 μl aliquot was then chromatographed on a silica gel plate using 25% 20 mM phosphate buffer (pH 7.0) and 75% acetonitrile. Following chromatography, the TLC plates were dried, and exposed to x-ray film for 36-48 hours (Eastman-Kodak Co). The respective spots of substrate and products were cut out and radioactivity determined by liquid scintillation. […]

BHK-21 cells [1] = assay: Transfection with MEGL/2ABD construct, confocal microscopy, BHK-21; type: cell-based; settings: for effect of expressed MEGL/2ABD on BHK-21 cells: cell aggregation: 18 hours after transfection
From the text: (§1) The recombinant vector pMEGL-ET containing MEGL insert and pEGFP-C3 mammalian expression vector (Promega, Inc.) were digested with EcoR I and Bgl II restriction enzymes. The digested products were separated on 1% agarose to verify digestion and the MEGL insert was ligated into pEGFP-C3 vector. The ligated vector was then transformed into DH5α bacteria and the recombinant colonies were selected by kanamycin resistance. The plasmid from the recombinant colonies, were further tested for the insert by PCR using MEGL/2ABD specific primers. The recombinant bacteria, was then grown in bulk, plasmid isolated by maxi/mini preps using columns (Qiagen, Inc.). Purified plasmid was then used for mammalian transfection. HeLa, HEK-AD293T and BHK-21 cells (ATCC, Rockville, Md.) were grown in 75-cm^2 flasks in Dulbecco's modified Eagle's medium, supplemented with 10% fetal bovine serum 100 units/ml penicillin and 100 μg/ml streptomycin (Invitrogen Inc), in an atmosphere of 5% CO2, 95% air at 37° C. For confocal microscopy, cells were plated on cover slips in 35 mm^2 dishes. When cells reached 50-75% confluency they were placed in serum and antibiotic-free medium and co-transfected with plasmid DNA containing GFP and with or without MEGL/2ABD insert. […] Transfections of HEK-AD293T cells were performed using standard calcium phosphate methods. After incubation of cells for 4-18 hours, cells were washed with phosphate-buffered saline, fixed with 4% formaldehyde for 8 minutes, permeabilized using 0.2% Triton X-100 (Sigma-Aldrich) and mounted on glass slides using the ProLong Antifade Kit (Molecular Probes) for staining with DAPI using standard protocols. Samples were examined on a Zeiss LSM510 confocal microscope.
(§2) After 18 hour incubations cells were washed with phosphate-buffered saline, fixed, permeabilized and mounted on glass slides using the ProLong Antifade Kit (Molecular Probes) with DAPI staining as previously described by Enniga et al. 2006. Samples were examined on a Zeiss LSM510 confocal microscope.

MEGL = biological target: T2, MEGL (Porphyromonas gingivalis, UniProt Q7MX71); type: biochemical
T2 construct: His tag (N, cleaved yes); made in house
T2 sequence (Q7MX71 7-399): as above
Protocol: This assay uses C^14-labeled methionine and recombinant, purified, HIS-TAG cleaved and further purified MEGL protein. The MEGL enzyme forms very specific radiolabeled nonvolatile C^14-labeled α-ketobutyrate. Further the products are separated by a silica gel-G thin layer chromatography (TLC) method using 75% acetonitrile and 25% 20 mM phosphate buffer (pH 7.0) solvent system.
Further characterization of the enzyme was made using these protocols.

HeLa cells = assay: Transfection with MEGL/2ABD construct, confocal microscopy (GFP, DAPI), HeLa; type: cell-based; settings: for rescue of MEGL/2ABD-transfected HeLa cells from death: propargylglycine in culture medium (10 μM, 2 hours after transfection)
From the text: as §1, §2

HEK-AD293T cells [2] = assay: Transfection with MEGL/2ABD construct, confocal microscopy, HEK-AD293T; type: cell-based; settings: for effect of expressed MEGL/2ABD on HEK-AD293T cells: cell aggregation: 18 hours after transfection
From the text: as §1, §2

[3] = Protocol: Typically the overall reaction of α-ketobutyrate formation was performed in a total volume of 24 μl. The reaction contained 4 μl of reaction buffer [150 mM Tris-HCl (pH 8.0)], 4 μl of 1 mM pyridoxal phosphate (PLP), 3 μl of H2O, 6 μl of storage buffer, and 4 μl of diluted protein (0.4 μg), gently mixed and incubated at 37° C. for 5 minutes. The reaction was started by adding 1.93×10^5 cpm of 1-^14C-L-methionine (8814 cpm/nmol) and the contents were incubated at 37° C. for 15 minutes. The reaction was stopped by boiling for a minute, cooled on ice for 2 minutes and centrifuged at 3575 g for 7 minutes. A 2 μl aliquot was then chromatographed on a silica gel plate using 25% 20 mM phosphate buffer (pH 7.0) and 75% acetonitrile. Following chromatography, the TLC plates were dried, and exposed to x-ray film for 36-48 hours (Eastman-Kodak Co). The respective spots of substrate and products were cut out and radioactivity determined by liquid scintillation.
The activity was measured using different amounts of protein ranging from 0.1 to 1 μg and the reaction was performed for 5-30 minutes.
Reaction at each protein concentration was performed for 15 minutes at pH 8.0 according to the standard assay procedures described. Effect of time was tested using 0.4 μg of protein. […]

BHK-21 cells [4] = settings: BHK-21, 18 hours after transfection
Protocol: (§3) The effect of MEGL on cell viability was determined using 3-[4,5-dimethylthiazol-2-yl]-2,5-diphenyl-tetrazolium bromide (MTT, Sigma-Aldrich). For MTT assay, cells were suspended at a concentration of ˜4×10^4 cells (180 μl/well). 20 μl of MTT solution (5 mg/ml) was added for each well and incubate at 37° C. and 5% CO2 for about 2-5 hours for purple color development. Formazan precipitates were dissolved in DMSO for 30 minutes at 37° C., and the absorbance was measured at 570 nm.
(§4) Viability of cells transfected with MEGL construct. Three different cell lines (Hela, BHK-21, and HEK-AD293T) were plated in 96-well plates and transfected with either vector expressing green fluorescent protein, GFP (pEGFP-C3), or MEGL and GFP (pEGFP-C3-MEGL). After 18 hours of transfection, cells were treated with MTT and viability was determined by measuring the MTT absorbance at λ570 nm. Control absorbance was arbitrarily determined as 100% viability.

HEK-AD293T cells [5] = settings: 18 hours after transfection
Protocol: as §3, §4

[6] = propargylglycine in culture medium (10 μM, 2 hours after transfection)

Compound: CSCC[C@@H](N)C(=O)O [D-methionine]
- relative MEGL/2ABD activity (L-methionine) in the presence of competing compound (MEGL/2ABD): 43.6%

Compound: N[C@@H](CCSC[C@H](N)C(=O)O)C(=O)O [L-cystathionine]
- relative MEGL/2ABD activity (L-methionine) in the presence of competing compound (MEGL/2ABD): 54.6%

Compound: N[C@@H](CS)C(=O)O [L-cysteine]
- relative MEGL/2ABD activity (L-methionine) in the presence of competing compound (MEGL/2ABD): 24.5% and 25.5%

Compound: N[C@@H](CCOC(=O)CCC(=O)O)C(=O)O [o-succinyl-homoserine, O-succinyl L-homoserine]
- relative MEGL/2ABD activity (L-methionine) in the presence of competing compound (MEGL/2ABD): 45.6%

Compound: C#CCC(N)C(=O)O (centres unmarked) [propargylglycine, reference compound]
- relative MEGL/2ABD activity (L-methionine) in the presence of competing compound (MEGL/2ABD): 0.26%
- effect on cell aggregation of MEGL/2ABD-transfected BHK-21 cells (BHK-21 cells [1]; [6]): inhibited MEGL/2ABD mediated cell aggregation; also recorded: prevented cell aggregation; also recorded: inhibited the cell aggregation
- effect of suicide inhibitor on MEGL activity (MEGL): completely knocked out the MEGL activity
- rescue of MEGL/2ABD-transfected HeLa cells from death (HeLa cells): restores cells from death; also recorded: restored viability
- rescue of MEGL/2ABD-transfected HeLa cells from death (HeLa cells; listed as Propargylglycine): restored cells from death
- rescue of MEGL/2ABD-transfected HeLa cells from death (HeLa cells; listed as propargyl glycine): restored nearly all cells from death
- effect on cell aggregation of MEGL/2ABD-transfected HEK-AD293T cells (HEK-AD293T cells [2]; [6]): inhibited MEGL/2ABD mediated cell aggregation; also recorded: prevented cell aggregation; also recorded: inhibited the cell aggregation

Compound: C[Se]CC[C@H](N)C(=O)O [selenomethionine]
- relative MEGL/2ABD activity (L-methionine) in the presence of competing compound (MEGL/2ABD): 33.15%
- relative MEGL/2ABD activity (L-methionine) in the presence of competing compound (MEGL/2ABD; listed as seleno-methionine): 33.2%

Compound: C[S+]([O-])CC[C@H](N)C(=O)O (some centres unmarked) [sulfoxymethionine, methionine-sulfoxide]
- relative MEGL/2ABD activity (L-methionine) in the presence of competing compound (MEGL/2ABD): 46.71%
- relative MEGL/2ABD activity (L-methionine) in the presence of competing compound (MEGL/2ABD; listed as methionine-sulfoxide): 46.7%

Compound: methionine gamma lyase-2-aminobutyrate deaminase [MEGL-2ABD]
- effect of expressed MEGL/2ABD on BHK-21 cells: cell aggregation (BHK-21 cells [1]): severe cell aggregation
- effect of expressed MEGL/2ABD on BHK-21 cells: cell aggregation (BHK-21 cells [1]; listed as MEGL): very prominent cell aggregation
- effect of expressed MEGL/2ABD on BHK-21 cells: cell aggregation (BHK-21 cells [1]; listed as MEGL/2ABD): severe cell aggregation; also recorded: significant cell aggregation
- overall α-ketobutyrate formation at temperatures 72-93° C. ([3]; 72-93° C.): very minimal
- temperature range of optimal activity ([3]; 15 minutes, pH 8.0, 0.4 μg protein): 37-55 °C
- optimal temperature (MEGL): 37-55 °C
- pH optimum (MEGL): 8.0
- Vmax (MEGL; oral pathology section): 0.57 μmol/min/mg protein
- cell death (words) (BHK-21 cells [4]; listed as MEGL): no significant cell death
- cell death (words) (BHK-21 cells [4]; listed as MEGL/2ABD): no cell death
- cell death (words) (HEK-AD293T cells [5]; listed as MEGL): no significant cell death
- cell death (words) (HEK-AD293T cells [5]; listed as MEGL/2ABD): no cell death
- effect of expressed MEGL/2ABD on HeLa cells (HeLa cells; 18 hours after transfection, listed as MEGL/2ABD): causes cell death; also recorded: significant cell death; also recorded: significant apoptosis
- HeLa cell death (HeLa cells; within 18 hours of transfection, judged by confocal images): 30%
- effect of expressed MEGL/2ABD on HEK-AD293T cells: cell aggregation (HEK-AD293T cells [2]): severe cell aggregation
- effect of expressed MEGL/2ABD on HEK-AD293T cells: cell aggregation (HEK-AD293T cells [2]; listed as MEGL): very prominent cell aggregation
- effect of expressed MEGL/2ABD on HEK-AD293T cells: cell aggregation (HEK-AD293T cells [2]; listed as MEGL/2ABD): severe cell aggregation; also recorded: significant cell aggregation
